{"source": "patent US12030908B2", "about": "“Antimicrobial compounds, compositions, and uses thereof” (Lakewood Amedex, Inc., priority 2017, dated 2024)", "key": {"[1]": {"system": "methicillin resistant Staphylococcus aureus (USA300)", "format": "in vivo, SKH-1 hairless mice", "details": "for decrease in CFU burden: 6 hours post challenge", "method": "SKH-1 hairless mice have the outer layer of skin cells removed by stripping with 7 applications and removals of surgical tape. Immediately following tape stripping, mice receive a topical inoculation of methicillin resistant Staphylococcus aureus (USA300) at a targeted challenge of 6.0 log10 CFU. Four hours following challenge, mice are treated with test articles or vehicle controls, and at two hours following treatment, mice have skin harvested for CFU burden enumeration.\nSKH-1 mice are obtained from Charles River Laboratories. The age of the mice on Day 0 is approximately 6-8 weeks. Only female mice are selected for the study. Animals are handled in accordance with AUP number TP-18. Mice are housed in solid-bottom micro-isolator cages on stainless steel racks. Animals are fed irradiated Teklad Global 2918 Rodent Diet and water ad libitum. Bedding is provided in the form of irradiated Teklad ⅛″ corn cob bedding 7902. Animals are maintained in a bioBubble® Clean Room which provides H.E.P.A filtered air into the bubble environment at 100 complete air changes per hour. The environment is controlled to a temperature range of 74°±5° F. and a humidity range of 30-70%. Fluorescent lighting provides illumination for 12 hours per day. Mice are acclimated for a minimum of 24 hours prior to study start. The animals are observed for general health and acceptability for use in this study. Only animals deemed healthy are included in this study.\nOn Day 0 immediately prior to infection, each mouse is anesthetized using isoflurane and the dorsal area receives 7 applications and removals of Nexcare™ (3M) surgical tape in order to remove the outermost epidermal layer of skin.\nThe challenge microorganism is prepared. Methicillin resistant Staphylococcus aureus (USA300) is grown overnight at 37° C. at ambient atmosphere trypticase soy agar plates supplemented with 5% sheep blood cells. The culture is aseptically swabbed and transferred to tubes sterile water until optical density reaches approximately 0.75 at 600 nm. The cultures are diluted to provide challenge inoculate of 6.0 log10 CFU per mouse in a volume of 100 μL. Inoculum count is estimated before inoculation by optical density and confirmed after inoculation by dilution and back count.\nOn Day 0 at 0 hours, animals are anesthetized using isoflurane, brought to a surgical plane, and infected with bacteria via topical application, spread in the tape stripped area of approximately 0.75″×0.75″. Challenge is allowed to dry slightly before mice are brought out of anesthesia.\nThe test articles are prepared in a manner to minimize endotoxin and bacterial contamination. A 10% (100 mg/mL) solution of Nu-8 is prepared in 0.9% sterile saline. A 20% Nu-8 solution for 50/50 mixture in a hydrogel vehicle (for 10% final Nu-8 concentration) is made using sterile water. Citric acid is used to adjust the solutions to pH 3.5. The test articles are stored at 4° C.\nA 0.9% sterile saline adjusted to pH 3.5 with citric acid is prepared as a vehicle/negative control and stored at room temperature. A hydrogel vehicle adjusted to pH 3.5 with citric acid is prepared as another vehicle/negative control. The hydrogel vehicle is prepared by mixing equal volumes of hydrogel and 0.9% sterile saline with final pH of the mixture adjusted to pH 3.5.\nAt exactly four hours following challenge, mice in Groups 2-5 receive a topical application of Nu-8 (in either saline or hydrogel vehicle), saline vehicle, or gel vehicle, in a volume of […] spread on the dorsal area previously stripped and inoculated with bacteria. […] Mice are housed individually following treatment until harvest time.\nMice are observed at least twice daily during the study period and are randomly assigned to experimental groups as shown in TABLE 10. At the time indicated in TABLE 10, mice are humanely euthanized via CO2 overexposure. Mice are harvested at 6 hours post challenge (2 hours post-treatment). […]"}, "[2]": {"system": "bacterial strains", "test": "MIC at pH 3.5 in human and mouse urine", "format": "cell-based"}, "[3]": {"system": "Escherichia coli", "test": "MIC at pH 3.5, CLSI, Mueller-Hinton broth", "format": "cell-based", "details": "5 isolates", "method": "(§1) Bacterial strains evaluated in this study include Escherichia coli, Klebsiella spp, Serratia marcescens, Proteus mirabilis/vulgaris, Citrobacter spp, Providencia spp, Morganella morganii, Pseudomonas aeruginosa, Staphylococcus aureus (MRSA only), and Enterococcus faecalis. Nu-8 test solutions are adjusted to pH 3.5 with citric acid, and […] is evaluated per the CLSI methods in Mueller-Hinton broth supplemented accordingly to facilitate growth of specific strains."}, "[4]": {"system": "Proteus mirabilis/vulgaris", "test": "MIC at pH 3.5, CLSI, Mueller-Hinton broth", "format": "cell-based", "details": "5 isolates", "method": "as §1"}, "[5]": {"system": "Staphylococcus aureus (MRSA)", "test": "MIC at pH 3.5, CLSI, Mueller-Hinton broth", "format": "cell-based", "details": "20 isolates", "method": "as §1"}, "[6]": {"system": "Klebsiella pneumoniae", "test": "MIC at pH 3.5, CLSI, Mueller-Hinton broth", "format": "cell-based", "details": "5 isolates", "method": "as §1"}, "[7]": {"system": "Pseudomonas aeruginosa", "test": "MIC at pH 3.5, CLSI, Mueller-Hinton broth", "format": "cell-based", "details": "20 isolates", "method": "as §1"}, "[8]": {"system": "Serratia marcescens", "test": "MIC at pH 3.5, CLSI, Mueller-Hinton broth", "format": "cell-based", "details": "5 isolates", "method": "as §1"}, "[9]": {"system": "Citrobacter species", "test": "MIC at pH 3.5, CLSI, Mueller-Hinton broth", "format": "cell-based", "details": "5 isolates", "method": "as §1"}, "[10]": {"system": "Morganella morganii", "test": "MIC at pH 3.5, CLSI, Mueller-Hinton broth", "format": "cell-based", "details": "5 isolates", "method": "as §1"}, "[11]": {"system": "Enterococcus faecalis", "test": "MIC at pH 3.5, CLSI, Mueller-Hinton broth", "format": "cell-based", "details": "5 isolates", "method": "as §1"}, "[12]": {"system": "Providencia species", "test": "MIC at pH 3.5, CLSI, Mueller-Hinton broth", "format": "cell-based", "details": "5 isolates", "method": "as §1"}}, "note": "Like-named read-outs stand apart in the source and are kept apart here.", "data": [{"smiles": "CCCCOP(=O)(O)OC[C@H]1O[C@@H](n2ccc(N)nc2=O)C[C@@H]1OP(=O)(O)OCCCC", "note": "[Nu-8, sodium ((2R,3S,5R)-5-(4-amino-2-oxopyrimidin-1(2H)-yl)-3-((butoxyoxidophosphor-yl)oxy)tetrahydrofuran-2-yl)methyl butyl phosphate]", "values": [{"measurement": "decrease in CFU burden", "setting": "[1]; 10% Nu-8 in hydrogel pH 3.5, topical", "value": "~1.0", "unit": "log10 reduction"}, {"measurement": "decrease in CFU burden", "setting": "[1]; 10% Nu-8 in saline pH 3.5, topical", "value": "~1.0", "unit": "log10 reduction"}, {"measurement": "percentage reduction compared to the controls (FIG. 3)", "setting": "[1]; Nu-8 gel", "value": 87, "unit": "%"}, {"measurement": "colony forming units (FIG. 1)", "setting": "[1]; Nu-8 hydrogel, two hours post treatment", "value": "approximately 40,000 CFU per square millimeter"}, {"measurement": "reduction in bacteria vs saline and gel controls", "setting": "[1]; Nu-8 in saline or hydrogel, two hours post treatment", "value": "ten-fold"}, {"measurement": "colony forming units (FIG. 1)", "setting": "[1]; Nu-8 in saline, two hours post treatment", "value": "approximately 30,000 CFU per square millimeter"}, {"measurement": "percentage reduction compared to the controls (FIG. 3)", "setting": "[1]; Nu-8 saline", "value": 90, "unit": "%"}, {"measurement": "acute adverse events associated with the treatments", "setting": "[1]; topical, 10% Nu-8 in saline or hydrogel", "value": "None of the study subjects displayed any acute adverse events"}, {"measurement": "MICs in human and mouse urine", "setting": "[2]", "value": "comparable to those of Nu-8 in Mueller Hinton broth"}, {"measurement": "Nu-8 MIC (mg/mL) at pH 3.5", "setting": "[3]", "value": 37.5, "unit": "mg/mL"}, {"measurement": "Nu-8 MIC (mg/mL) at pH 3.5", "setting": "[4]", "value": "4.69-18.75 mg/mL"}, {"measurement": "MIC50 at pH 3.5", "setting": "[5]", "value": 18.75, "unit": "mg/mL"}, {"measurement": "MIC90 at pH 3.5", "setting": "[5]", "value": 37.5, "unit": "mg/mL"}, {"measurement": "Nu-8 MIC (mg/mL) at pH 3.5", "setting": "[5]; MIC range", "value": "9.38-37.5 mg/mL"}, {"measurement": "Nu-8 MIC (mg/mL) at pH 3.5", "setting": "[6]", "value": "37.5-75 mg/mL"}, {"measurement": "MIC50 at pH 3.5", "setting": "[7]", "value": 18.75, "unit": "mg/mL"}, {"measurement": "MIC90 at pH 3.5", "setting": "[7]", "value": 18.75, "unit": "mg/mL"}, {"measurement": "Nu-8 MIC (mg/mL) at pH 3.5", "setting": "[7]; MIC range", "value": "9.38-18.75 mg/mL"}, {"measurement": "Nu-8 MIC (mg/mL) at pH 3.5", "setting": "[8]", "value": "37.5-75 mg/mL"}, {"measurement": "Nu-8 MIC (mg/mL) at pH 3.5", "setting": "[9]", "value": "18.75-37.5 mg/mL"}, {"measurement": "Nu-8 MIC (mg/mL) at pH 3.5", "setting": "[10]", "value": 18.75, "unit": "mg/mL"}, {"measurement": "Nu-8 MIC (mg/mL) at pH 3.5", "setting": "[11]", "value": "4.69-18.75 mg/mL"}, {"measurement": "Nu-8 MIC (mg/mL) at pH 3.5", "setting": "[12]", "value": "9.38-37.5 mg/mL"}]}]}
